Measurements from patent publication US11439622B2 (OXFORD UNIVERSITY INNOVATION LIMITED, priority 2015, dated 2022).

Tests used:
K. pneumoniae IR16 NDM-1 = experiment: Meropenem MIC, clinically derived strains; format: cell-based; conditions: inhibitor 10 μg/ml
Method: (§1) CLSI, Wayne, Pa.) in the absence of each inhibitor or in its presence at the concentration stated. In each case the inhibitor solution was added to broth at 0.1% v/v to achieve the required final concentration; DMSO was used to dissolve inhibitors.
(§2) The results shown in Table 2 reveal that compounds of formula (I) are active in cells, including clinically relevant bacterial strains. Further studies were carried out to determine if compound of formula (I) potentiates BLA activity in clinically derived strains containing IMP-4, […] or NDM-1, which are the most commonly observed MBLs in clinical isolates.

K. pneumoniae B12 IMP-4 = experiment: Meropenem MIC, clinically derived strains; format: cell-based; conditions: inhibitor 10 μg/ml
Method: as §1, §2

K. pneumoniae A34 VIM-4 = experiment: Meropenem MIC, clinically derived strains; format: cell-based; conditions: inhibitor 10 μg/ml
Method: as §1, §2

K. pneumoniae 5055 IMP-1 = experiment: Meropenem MIC, clinically derived strains; format: cell-based; conditions: inhibitor 10 μg/ml
Method: as §1, §2

K. pneumoniae B19 IMP-4 = experiment: Meropenem MIC, clinically derived strains; format: cell-based; conditions: inhibitor 10 μg/ml
Method: as §1, §2

E. coli EC10 NDM-1 = experiment: Meropenem MIC, clinically derived strains; format: cell-based; conditions: inhibitor 10 μg/ml
Method: as §1

[1] = molecular target: VIM-2 (Veronese metallo-β-lactamase-2) (Escherichia coli, UniProt Q5U7L7); experiment: Enzyme inhibition assay, VIM-2; format: biochemical; conditions: read-out: pIC50 VIM-2 (converted)
Method: (§3) The biological activity of the compounds of the present invention was tested using standard assay protocols.^7 The following representative enzymes NDM-1 (New Delhi metallo-β-lactamase-1), IMP-1 (Imipenemase-1) and VIM-2 (Veronese metallo-β-lactamase-2) were selected from different clinically relevant B1 metallo-β-lactamases.

E. coli IR60 = experiment: Meropenem MIC, CLSI broth microdilution; format: cell-based; conditions: inhibitor 10 μg/ml
Method: as §1
(§4) For initial evaluations of the in vitro cell based activity of indole carboxylates we used well characterized bacterial strains (e.g. K. pneumoniae 5055; E. coli ATCC 25713) transformed with broad host range plasmids (e.g. pSU18 and derivatives) encoding few metallo-β-lactamases produced using their physiological (integron) promoters. We also tested a clinical strain, IR60 in the initial studies.^8
IR60 is a clinically strain original from India.^8 IR60 is also a multiresistant clinical strain.

IMP-1 (Imipenemase-1) = IMP-1 (Imipenemase-1) (Serratia marcescens, UniProt P52699); experiment: Enzyme inhibition assay, IMP-1; format: biochemical; conditions: read-out: pIC50 IMP-1 (converted)
IMP-1 (Imipenemase-1), sequence (P52699 19-246, looked up, species assumed): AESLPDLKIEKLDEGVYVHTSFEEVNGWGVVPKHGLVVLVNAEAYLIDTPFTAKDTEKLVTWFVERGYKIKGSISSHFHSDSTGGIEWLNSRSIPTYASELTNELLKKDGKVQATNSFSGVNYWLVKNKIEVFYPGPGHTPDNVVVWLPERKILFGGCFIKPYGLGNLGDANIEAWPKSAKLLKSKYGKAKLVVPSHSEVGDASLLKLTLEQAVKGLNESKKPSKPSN
Method: as §3

[2] = molecular target: NDM-1 (New Delhi metallo-β-lactamase-1) (Klebsiella pneumoniae, UniProt C7C422); experiment: Enzyme inhibition assay, NDM-1; format: biochemical; conditions: read-out: pIC50 NDM-1 (converted)
NDM-1 (New Delhi metallo-β-lactamase-1), sequence (C7C422 29-270, looked up, species assumed): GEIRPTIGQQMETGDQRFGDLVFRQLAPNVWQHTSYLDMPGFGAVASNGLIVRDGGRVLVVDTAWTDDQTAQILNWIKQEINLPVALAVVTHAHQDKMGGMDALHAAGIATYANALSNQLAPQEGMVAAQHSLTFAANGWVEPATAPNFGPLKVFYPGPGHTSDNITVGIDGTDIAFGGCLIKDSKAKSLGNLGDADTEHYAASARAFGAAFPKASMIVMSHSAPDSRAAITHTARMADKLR
Method: as §3

[3] = system: K. pneumoniae 5055 + NDM-1; experiment: Meropenem MIC, CLSI broth microdilution; format: cell-based; conditions: inhibitor 10 μg/ml
Method: as §1, §4

[4] = system: K. pneumoniae 5055 (control); experiment: Meropenem MIC, CLSI broth microdilution; format: cell-based; conditions: inhibitor 10 μg/ml
Method: as §1, §4

E. coli 25922 (control) = experiment: Meropenem MIC, CLSI broth microdilution; format: cell-based; conditions: inhibitor 10 μg/ml
Method: as §1, §4

[5] = system: K. pneumonia strain containing most clinically significant MBLs; experiment: Screening against K. pneumonia strain containing MBLs, overall statement; format: cell-based; conditions: Table 4
Method: as §1

Q: What does the source list for `Cc1cccc2c(-c3ccc(S(N)(=O)=O)cc3)c(C(=O)O)[nH]c12` [Example 6, 7-methyl-3-(4-sulfamoylphenyl)-1H-indole-2-carboxylic acid]?
A: Meropenem MIC in presence of inhibitor (K. pneumoniae IR16 NDM-1): 2 mg/L; Meropenem MIC in presence of inhibitor (K. pneumoniae B12 IMP-4): 16 mg/L; Meropenem MIC in presence of inhibitor (K. pneumoniae A34 VIM-4): 16 mg/L; Meropenem MIC in presence of inhibitor (K. pneumoniae 5055 IMP-1): 8 mg/L; Meropenem MIC in presence of inhibitor (K. pneumoniae B19 IMP-4): 8 mg/L; Meropenem MIC in presence of inhibitor (E. coli EC10 NDM-1): 8 mg/L; IC50 [1]: 0.316 µM; Meropenem MIC in presence of inhibitor (E. coli IR60): < 0.25 mg/L; IC50 (IMP-1 (Imipenemase-1)): 10 µM; IC50 [2]: 0.0158 µM; Meropenem MIC in presence of inhibitor [3]: 1 mg/L; Meropenem MIC in presence of inhibitor [4]: < 0.25 mg/L; Meropenem MIC in presence of inhibitor (E. coli 25922 (control)): < 0.25 mg/L

Q: `Cc1cccc2c(-c3ccc(S(C)(=O)=O)cc3)c(C(=O)O)[nH]c12` [Example 12, 7-methyl-3-(4-(methylsulfonyl)phenyl)-1H-indole-2-carboxylic acid] was tested. Which Meropenem MIC in presence of inhibitor (K. pneumoniae IR16 NDM-1) did it give?
A: 1 mg/L

Q: And the Meropenem MIC in presence of inhibitor (K. pneumoniae B12 IMP-4)?
A: 8 mg/L

Q: What about the Meropenem MIC in presence of inhibitor (K. pneumoniae A34 VIM-4) of the same molecule?
A: 16 mg/L

Q: What about the Meropenem MIC in presence of inhibitor (K. pneumoniae 5055 IMP-1) of the same molecule?
A: 8 mg/L

Q: And the Meropenem MIC in presence of inhibitor (K. pneumoniae B19 IMP-4)?
A: 8 mg/L

Q: And the Meropenem MIC in presence of inhibitor (E. coli EC10 NDM-1)?
A: 8 mg/L

Q: And the IC50 [1]?
A: 0.316 µM

Q: And the Meropenem MIC in presence of inhibitor (E. coli IR60)?
A: < 0.5 mg/L

Q: And the IC50 (IMP-1 (Imipenemase-1))?
A: 12.6 µM

Q: What about the IC50 [2] of the same molecule?
A: 0.0126 µM

Q: What about the Meropenem MIC in presence of inhibitor [3] of the same molecule?
A: 8 mg/L

Q: What about the Meropenem MIC in presence of inhibitor [4] of the same molecule?
A: < 0.25 mg/L

Q: What about the Meropenem MIC in presence of inhibitor (E. coli 25922 (control)) of the same molecule?
A: < 0.25 mg/L

Q: Which results are given for `CC(C)c1cccc2c(-c3ccc(F)cc3)c(C(=O)O)[nH]c12` [Example 53, 3-(4-fluorophenyl)-7-isopropyl-1H-indole-2-carboxylic acid]?
A: Meropenem MIC in presence of inhibitor (K. pneumoniae IR16 NDM-1): 1 mg/L; Meropenem MIC in presence of inhibitor (K. pneumoniae B12 IMP-4): 2 mg/L; Meropenem MIC in presence of inhibitor (K. pneumoniae A34 VIM-4): 4 mg/L; Meropenem MIC in presence of inhibitor (K. pneumoniae 5055 IMP-1): 2 mg/L; Meropenem MIC in presence of inhibitor (K. pneumoniae B19 IMP-4): 1 mg/L; Meropenem MIC in presence of inhibitor (E. coli EC10 NDM-1): 1 mg/L; IC50 [1]: 0.0316 µM; Meropenem MIC in presence of inhibitor (E. coli IR60): < 0.25 mg/L; IC50 (IMP-1 (Imipenemase-1)): 0.501 µM; IC50 [2]: 0.0126 µM; Meropenem MIC in presence of inhibitor [3]: 4 mg/L; Meropenem MIC in presence of inhibitor [4]: < 0.25 mg/L; Meropenem MIC in presence of inhibitor (E. coli 25922 (control)): < 0.25 mg/L

Q: For `CC(C)c1cccc2c(-c3cc(Cl)cc(Cl)c3)c(C(=O)O)[nH]c12` [Example 76, 3-(3,5-dichlorophenyl)-7-isopropyl-1H-indole-2-carboxylic acid], which “activity against all the MBLs” value [5] is on record?
A: good activity

Q: And the IC50 [1]?
A: 0.00398 µM

Q: What about the IC50 (IMP-1 (Imipenemase-1)) of the same molecule?
A: 0.0158 µM

Q: And the IC50 [2]?
A: 0.00794 µM
